# What was measured:
# Format in all cases: in vitro ADME
# MDR1 = experiment: MDCK-MDR1 permeability assay; settings: dog, MDCK-MDR1, MDCK-MDR1 cells; for efflux ratio at 2 h, 3 μM: Papp B→A divided by Papp A→B, read-out: Efflux ratio (ER); for Papp A→B at 2 h, 3 μM: test compound 3 μM, 2 hours at 37 degrees C, apical to basolateral
# Description: The bidirectional permeability (Apical to Basal and Basal to Apical directions) of test compounds in MDCK-MIDR1 cells were evaluated using MDCK-MIDR1 cells seeded in Solvo PreadyPort™ MDCK 96-well plate. Once the plate was received from ReadyCell (Barcelona, Spain), it was treated as per PreadyPort™ user's manual.
# For the Apical to Basolateral (A→B) permeability, 80 μL of test compound (3 μM) co-dosed with LY (Lucifer Yellow) (100 μM) in HBSS (Hank's Balanced Salt Solution) assay buffer was added to the donor side (A) while 250 μL of HBSS buffer was added to the receiver side (B). For the Basolateral to Apical (B→A) permeability, 255 μL of test compound (3 μM) in HBSS assay buffer was added to the donor side (B) while 75 μL of HBSS buffer containing LY (100 μM) was added to the receiver side (A).
# The plate was placed in an incubator set at 37 degrees C. After 10 minutes of pre-warming, 5 μL aliquot was taken from donor compartment and set aside as the dosing solution. The MDCK-MDR1 incubation plate was placed back into the incubator for 2 hours of incubation at 37 degrees C. After 2 hours of incubation, 25 μL and 5 μL aliquots were removed from the receiver and donor sides, respectively. To the 5 μL aliquots taken from the donor sides (before and after a 2-hour incubation) were diluted with 20 μL of the HBSS buffer. All samples were mixed with 150 μL with acetonitrile containing internal standard (IS) and 200 μL water, and analyzed by LC-MS/MS.
# The apparent permeability (Papp) was calculated using the following formula: Papp=dQ/dt×1/A×C0 where: • dQ/dt: amount of translocated material over incubation time (nmol/s) • A: area of insert (0.14 cm^2 for PreadyPort™ MDR1-96) • C0: initial concentration of product applied in apical (A→B) or basal (B→A) compartment (nmol/mL)
# The efflux ratio (ER) was measured by dividing the Papp (basolateral to apical direction) by Papp (apical to basolateral direction). It is a general measure of the involvement of active processes. An ER>2 is considered positive for active transport.
# Percent recovery was measured using the following equation:
# [formula] where: • VR: Volume of the receiver compartment (mL) • VD: Volume of the donor compartment (mL) • CN: Concentration of dosing solution (μM) collected after 10 minutes of incubation • CR^final: Receiver concentration at the end of the incubation (μM) • CD^final: Donor concentration at the end of the incubation (μM)
# The data reported in Table 3 were obtained according to the MDCK-MDR1 permeability assay described above.
# human hepatocytes = experiment: Hepatocytes stability assay (human hepatocytes); settings: human hepatocytes; scaled hepatic clearance divided by liver blood flow (well-stirred model, fu assumed unity)
# Description: (§1) In vitro metabolic stability was assessed using cryopreserved hepatocytes from male Sprague Dawley rats and a pool of 50 mixed gender humans (BioIVT, Baltimore, MD). The incubation mixtures were prepared by mixing 250 μL of pre-warmed KHB (Krebs-Henseleit buffer) containing 2×10^6 cell/mL of hepatocytes with 250 μL of pre-warmed KHB buffer containing 2 μM of test compounds in a 48-well plate, giving a final concentration of 1 μM test compound (0.1% DMSO) and 1×10^6 cell/mL of hepatocytes. The reaction mixture was incubated at 37 degrees C. A 50 μL aliquot of incubation mixture was taken at time points (0, 15, 30, 60, 120 and 240 minutes) and transferred into a 96-well plate containing 300 μL ice-cold acetonitrile (containing 30 ng/mL of labetalol and 10 ng/mL of Naltrexone-d3 as internal standards) and immediately placed in ice to terminate the reaction. Samples were centrifuged, and supernatants were transferred into 96-well plates for liquid chromatography with tandem mass spectrometry (LC-MS/MS) analysis to monitor the depletion of the test compound.
# (§2) Data was calculated as percent remaining by assuming zero-minute time point peak area ratio (analyte/IS) as 100% and dividing remaining time point peak area ratios by zero-minute time point peak area ratio. Data were fitted to a first-order decay model to determine half-life. From a plot of log (ln) peak area against time, the slope of the line was determined. Subsequently, half-life (T1/2) and intrinsic clearance (CLint) were calculated using the equations below: Elimination rate constant (k)=(−slope) Half-life (T1/2) min=0.693/k Intrinsic Clearance (CLint) (mL/min/million cells)=(V×0.693)/T1/2 V=incubation volume mL/number of cells The in vitro T1/2 was converted to in vitro intrinsic clearance (CLint,hep) in units of mL/min/kg using the formula shown below:
# (§3) [formula] The in vitro intrinsic clearance (CLint,hep) was scaled to in vivo hepatic clearance (CL,hep) using the following equation which was adapted from a well-stirred model.
# (§4) [formula] where Q is the liver blood flow and fu is the fraction unbound (assumed to be unity in this case). All parameters used in the calculation are shown below (Table 4).
# (§5) The extraction ratio (ER) was calculated by dividing the hepatic clearance of a compound to the liver blood flow. The data reported in Table 5 were obtained according to the human hepatocytes stability assay described above.
# [1] = Hepatocytes stability assay (human hepatocytes); settings: both sexes, human, cryopreserved hepatocytes, cryopreserved human hepatocytes (pool of 50 mixed gender); 1 μM test compound; 1×10^6 cell/mL; 37 degrees C; read-out: CLint (μL/min/million cells)
# Description: as §1, §2, §3, §4, §5
SMILES,"efflux ratio at 2 h, 3 μM (MDR1)","Papp A→B at 2 h, 3 μM (MDR1)",Extraction Ratio (ER) (human hepatocytes),hepatocyte CLint at 1 μM [1]
Cc1cccc2c1C1CCC(CC1)OC[C@H]1[C@@H](NS(=O)(=O)C3CC3)CCCN1C(=O)CO2 (stereo in doubt) [Compound 4],31,0.66 ×10⁻⁶ cm/s,0.81,29 µL/min/1e6 cells
Cc1ccnc2c1[C@H]1CC[C@H](CC1)OCC1[C@@H](NS(=O)(=O)C3CC3)CCCN1C(=O)CO2 (stereo in doubt) [Compound 62],> 100,0.092 ×10⁻⁶ cm/s,0.76,21 µL/min/1e6 cells
Cc1ncnc2c1[C@H]1CC[C@H](CC1)OCC1[C@@H](NS(=O)(=O)C3CC3)CCN1C(=O)CO2 (stereo in doubt) [Compound 83],46,0.85 ×10⁻⁶ cm/s,0.28,2.6 µL/min/1e6 cells
CC(C)S(=O)(=O)N[C@H]1CCCN2C(=O)COc3ncc(Cl)cc3[C@H]3CC[C@H](CC3)OCC12 (stereo in doubt) [Compound 35],81,0.35 ×10⁻⁶ cm/s,0.70,16 µL/min/1e6 cells
Cc1ccc2c(c1)C1CCC(CC1)OC[C@H]1[C@@H](NS(=O)(=O)C3CC3)CCCN1C(=O)CO2 (stereo in doubt) [Compound 13],72,0.35 ×10⁻⁶ cm/s,0.48,6.3 µL/min/1e6 cells
O=C1COc2ccccc2[C@H]2CC[C@H](CC2)OCC2[C@@H](NS(=O)(=O)C3CCCC3)CCCN12 (stereo in doubt) [Compound 33],59,0.55 ×10⁻⁶ cm/s,0.86,41 µL/min/1e6 cells
O=C1COc2ccccc2[C@H]2CC[C@H](CC2)OCC2[C@@H](NS(=O)(=O)C3COC3)CCCN12 (stereo in doubt) [Compound 80],51,0.79 ×10⁻⁶ cm/s,0.63,11 µL/min/1e6 cells
O=C1COc2ccccc2C2CCC(CC2)OC[C@H]2[C@@H](NS(=O)(=O)CCO)CCCN12 (stereo in doubt) [Compound 19],> 100,< 0.092 ×10⁻⁶ cm/s,0.50,6.6 µL/min/1e6 cells
CC(C)(C)S(=O)(=O)N[C@H]1CCCN2CCOc3ccccc3[C@H]3CC[C@H](CC3)OCC12 (stereo in doubt) [Compound 56],3.3,1.7 ×10⁻⁶ cm/s,0.91,69 µL/min/1e6 cells
Cc1ccc2c(c1)OCC(=O)N1CCC[C@H](NS(C)(=O)=O)C1CO[C@H]1CC[C@@H]2CC1 (stereo in doubt) [Compound 40],> 100,< 0.18 ×10⁻⁶ cm/s,0.49,6.4 µL/min/1e6 cells
Cc1cccc2c1OCCN1CCC[C@H](NS(C)(=O)=O)C1CO[C@H]1CC[C@@H]2CC1 (stereo in doubt) [Compound 49],0.73,8.6 ×10⁻⁶ cm/s,0.90,58 µL/min/1e6 cells
CC(C)S(=O)(=O)N[C@H]1CCCN2C(=O)COc3ccc(Cl)cc3[C@H]3CC[C@H](CC3)OCC12 (stereo in doubt) [Compound 26],> 100,< 0.12 ×10⁻⁶ cm/s,0.43,5.1 µL/min/1e6 cells
Cc1ncnc2c1[C@H]1CC[C@H](CC1)OCC1[C@@H](NS(=O)(=O)C(C)C)CCN1C(=O)CO2 (stereo in doubt) [Compound 86],24,1.9 ×10⁻⁶ cm/s,0.38,4.1 µL/min/1e6 cells
Cc1c(Cl)ccc2c1[C@H]1CC[C@H](CC1)OCC1[C@@H](NS(C)(=O)=O)CCCN1C(=O)CO2 (stereo in doubt) [Compound 31],> 100,0.32 ×10⁻⁶ cm/s,0.37,3.9 µL/min/1e6 cells
CN(C)CCS(=O)(=O)N[C@H]1CCCN2C(=O)COc3ccccc3[C@H]3CC[C@H](CC3)OCC12 (stereo in doubt) [Compound 39],> 100,< 0.086 ×10⁻⁶ cm/s,0.75,20 µL/min/1e6 cells
O=C1COc2ccccc2C2CCC(CC2)OC[C@H]2[C@@H](NS(=O)(=O)CF)CCCN12 (stereo in doubt) [Compound 6],35,1 ×10⁻⁶ cm/s,0.73,18 µL/min/1e6 cells
O=C1COc2ccccc2[C@H]2CC[C@H](CC2)OCC2[C@@H](NS(=O)(=O)CC3CC3)CCCN12 (stereo in doubt) [Compound 48],60,0.56 ×10⁻⁶ cm/s,0.86,41 µL/min/1e6 cells
